# Results from patent US11547697B2, “Heterocyclic compounds and uses thereof” (MILLENNIUM PHARMACEUTICALS, INC., priority 2009, dated 2023).
# Read-outs that look alike come from different tables or passages of the source.
# What was measured:
# [1] = biological target: p110α/p85α (Homo sapiens (Human), UniProt P42336); assay: PI 3-Kinase (human) HTRF assay, p110α/p85α; assay type: biochemical
# [2] = biological target: p110δ/p85α (Homo sapiens (Human), UniProt O00329); assay: PI 3-Kinase (human) HTRF assay, p110δ/p85α; assay type: biochemical
# [3] = biological target: p110γ (Homo sapiens (Human), UniProt P48736); assay: PI 3-Kinase (human) HTRF assay, p110γ; assay type: biochemical
# [4] = tested on: tumor cells with a PI3Kα mutation (e.g., MDA-MB-361 and T47D); assay: Proliferation of tumor cells with PI3Kα mutation; assay type: cell-based; details: Homo sapiens
# [5] = biological target: p110β/p85α (Homo sapiens (Human), UniProt P42338); assay: PI 3-Kinase (human) HTRF assay, p110β/p85α; assay type: biochemical
# [6] = in vitro, read-out: PI3K α IC50
# [7] = in vitro, read-out: PI3K δ IC50
# [8] = in vitro, read-out: PI3K γ IC50
# [9] = T47D cells, read-out: T47D proliferation IC50
# [10] = PC3, read-out: PC3 proliferation In Vitro IC50
# [11] = in vitro, read-out: PI3K β IC50
# [12] = T47D cells, read-out: T47D proliferation
# Sequence of p110γ (P48736 whole entry): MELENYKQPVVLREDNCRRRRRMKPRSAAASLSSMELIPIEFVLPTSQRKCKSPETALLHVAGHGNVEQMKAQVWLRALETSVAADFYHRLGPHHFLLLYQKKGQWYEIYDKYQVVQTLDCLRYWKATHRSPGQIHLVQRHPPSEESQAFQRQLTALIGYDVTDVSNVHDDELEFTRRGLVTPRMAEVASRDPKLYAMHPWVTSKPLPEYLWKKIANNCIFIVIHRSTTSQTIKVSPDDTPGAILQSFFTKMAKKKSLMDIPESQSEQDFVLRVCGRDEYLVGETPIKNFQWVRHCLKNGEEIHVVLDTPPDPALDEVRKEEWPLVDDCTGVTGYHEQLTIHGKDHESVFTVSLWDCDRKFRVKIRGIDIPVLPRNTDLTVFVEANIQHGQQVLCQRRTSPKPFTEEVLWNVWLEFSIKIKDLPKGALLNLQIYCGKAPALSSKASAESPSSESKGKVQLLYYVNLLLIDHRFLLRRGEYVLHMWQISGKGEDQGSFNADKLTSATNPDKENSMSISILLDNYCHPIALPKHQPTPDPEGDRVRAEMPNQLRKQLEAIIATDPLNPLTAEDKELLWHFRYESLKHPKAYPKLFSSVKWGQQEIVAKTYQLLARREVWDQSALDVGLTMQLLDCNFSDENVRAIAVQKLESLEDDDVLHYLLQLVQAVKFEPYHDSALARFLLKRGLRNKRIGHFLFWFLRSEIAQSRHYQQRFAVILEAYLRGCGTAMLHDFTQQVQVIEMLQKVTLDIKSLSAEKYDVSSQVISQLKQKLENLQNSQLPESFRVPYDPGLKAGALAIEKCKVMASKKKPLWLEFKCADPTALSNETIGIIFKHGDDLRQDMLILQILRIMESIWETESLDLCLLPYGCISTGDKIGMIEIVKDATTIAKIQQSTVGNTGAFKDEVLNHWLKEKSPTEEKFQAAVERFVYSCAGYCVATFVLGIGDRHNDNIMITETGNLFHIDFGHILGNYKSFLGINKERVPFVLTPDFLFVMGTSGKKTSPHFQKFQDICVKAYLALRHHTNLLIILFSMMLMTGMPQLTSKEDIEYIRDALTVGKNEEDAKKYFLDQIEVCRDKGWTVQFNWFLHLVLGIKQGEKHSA
# Sequence of p110α/p85α (P42336 whole entry): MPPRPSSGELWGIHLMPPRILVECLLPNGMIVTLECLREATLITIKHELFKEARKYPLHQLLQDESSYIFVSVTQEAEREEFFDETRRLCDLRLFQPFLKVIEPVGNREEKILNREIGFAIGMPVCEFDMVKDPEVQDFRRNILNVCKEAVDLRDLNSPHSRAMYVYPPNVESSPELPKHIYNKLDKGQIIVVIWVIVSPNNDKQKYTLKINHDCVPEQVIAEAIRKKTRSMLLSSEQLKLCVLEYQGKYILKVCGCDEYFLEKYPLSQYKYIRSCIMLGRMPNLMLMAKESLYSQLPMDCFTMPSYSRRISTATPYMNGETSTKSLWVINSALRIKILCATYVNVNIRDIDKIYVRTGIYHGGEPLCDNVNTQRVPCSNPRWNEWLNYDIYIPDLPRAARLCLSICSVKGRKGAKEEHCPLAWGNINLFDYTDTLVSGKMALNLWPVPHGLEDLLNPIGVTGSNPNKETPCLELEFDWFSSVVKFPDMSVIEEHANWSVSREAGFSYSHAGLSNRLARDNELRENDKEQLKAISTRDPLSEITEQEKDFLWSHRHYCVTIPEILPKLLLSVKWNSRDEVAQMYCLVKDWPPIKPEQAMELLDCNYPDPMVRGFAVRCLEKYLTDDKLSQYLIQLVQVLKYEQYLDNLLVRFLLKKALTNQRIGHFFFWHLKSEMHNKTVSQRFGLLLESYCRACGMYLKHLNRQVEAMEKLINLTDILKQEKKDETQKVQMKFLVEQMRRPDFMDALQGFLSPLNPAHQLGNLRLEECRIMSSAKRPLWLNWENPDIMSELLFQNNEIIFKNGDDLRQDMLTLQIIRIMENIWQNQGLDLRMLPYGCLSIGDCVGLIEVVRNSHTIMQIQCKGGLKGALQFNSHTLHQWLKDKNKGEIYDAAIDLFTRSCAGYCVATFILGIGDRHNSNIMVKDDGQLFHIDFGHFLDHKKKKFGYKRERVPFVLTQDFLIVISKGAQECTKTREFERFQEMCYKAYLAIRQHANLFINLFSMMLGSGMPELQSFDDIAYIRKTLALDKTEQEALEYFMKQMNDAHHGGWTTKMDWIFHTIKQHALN
# Sequence of p110α/p85α (P27986 whole entry partner): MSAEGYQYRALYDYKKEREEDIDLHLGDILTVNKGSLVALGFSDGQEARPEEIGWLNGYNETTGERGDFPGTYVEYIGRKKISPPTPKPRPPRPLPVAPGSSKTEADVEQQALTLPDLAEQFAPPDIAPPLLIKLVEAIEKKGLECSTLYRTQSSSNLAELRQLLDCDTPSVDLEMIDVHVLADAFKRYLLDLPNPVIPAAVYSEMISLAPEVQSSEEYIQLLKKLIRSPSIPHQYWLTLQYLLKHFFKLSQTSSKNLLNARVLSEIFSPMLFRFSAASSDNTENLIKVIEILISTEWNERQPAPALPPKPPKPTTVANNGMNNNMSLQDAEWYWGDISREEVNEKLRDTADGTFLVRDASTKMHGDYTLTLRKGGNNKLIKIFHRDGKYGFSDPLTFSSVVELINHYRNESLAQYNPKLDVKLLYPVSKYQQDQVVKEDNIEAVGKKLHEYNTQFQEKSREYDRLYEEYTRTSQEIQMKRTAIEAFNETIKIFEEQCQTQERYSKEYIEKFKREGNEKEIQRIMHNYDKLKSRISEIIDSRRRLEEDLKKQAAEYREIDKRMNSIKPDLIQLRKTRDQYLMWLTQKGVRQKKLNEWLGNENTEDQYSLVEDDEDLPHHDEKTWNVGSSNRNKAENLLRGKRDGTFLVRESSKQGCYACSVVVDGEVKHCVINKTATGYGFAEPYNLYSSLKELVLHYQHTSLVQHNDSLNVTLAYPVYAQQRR
# Sequence of p110δ/p85α (O00329 whole entry): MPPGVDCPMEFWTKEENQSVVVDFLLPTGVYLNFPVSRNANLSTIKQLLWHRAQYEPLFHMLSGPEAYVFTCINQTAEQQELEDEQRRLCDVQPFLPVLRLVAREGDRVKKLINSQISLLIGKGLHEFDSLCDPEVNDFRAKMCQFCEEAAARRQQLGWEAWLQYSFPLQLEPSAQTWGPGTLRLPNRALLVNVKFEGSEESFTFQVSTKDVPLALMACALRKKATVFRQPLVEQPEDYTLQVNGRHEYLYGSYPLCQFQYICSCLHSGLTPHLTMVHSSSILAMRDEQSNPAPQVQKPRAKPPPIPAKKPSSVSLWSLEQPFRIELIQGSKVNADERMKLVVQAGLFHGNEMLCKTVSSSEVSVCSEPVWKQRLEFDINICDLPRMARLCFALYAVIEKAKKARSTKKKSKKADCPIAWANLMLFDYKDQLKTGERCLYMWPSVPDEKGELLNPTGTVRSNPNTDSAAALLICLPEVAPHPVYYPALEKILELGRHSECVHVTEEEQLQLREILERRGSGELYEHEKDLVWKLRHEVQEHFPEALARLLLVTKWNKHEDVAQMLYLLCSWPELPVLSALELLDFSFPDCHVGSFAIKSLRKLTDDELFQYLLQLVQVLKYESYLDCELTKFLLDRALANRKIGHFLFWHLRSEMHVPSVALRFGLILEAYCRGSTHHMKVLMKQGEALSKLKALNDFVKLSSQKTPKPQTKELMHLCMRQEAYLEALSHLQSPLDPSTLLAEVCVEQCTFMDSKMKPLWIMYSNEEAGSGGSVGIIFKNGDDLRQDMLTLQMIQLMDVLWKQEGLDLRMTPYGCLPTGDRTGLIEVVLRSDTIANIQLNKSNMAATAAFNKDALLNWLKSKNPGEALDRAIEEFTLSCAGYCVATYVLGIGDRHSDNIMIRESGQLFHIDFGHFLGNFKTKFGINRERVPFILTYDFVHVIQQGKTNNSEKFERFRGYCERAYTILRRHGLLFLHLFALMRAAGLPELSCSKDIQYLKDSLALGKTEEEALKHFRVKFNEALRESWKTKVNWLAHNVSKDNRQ
# Sequence of p110δ/p85α (P27986 whole entry partner): as the sequence (P27986 whole entry partner) above
# Sequence of p110β/p85α (P42338 whole entry): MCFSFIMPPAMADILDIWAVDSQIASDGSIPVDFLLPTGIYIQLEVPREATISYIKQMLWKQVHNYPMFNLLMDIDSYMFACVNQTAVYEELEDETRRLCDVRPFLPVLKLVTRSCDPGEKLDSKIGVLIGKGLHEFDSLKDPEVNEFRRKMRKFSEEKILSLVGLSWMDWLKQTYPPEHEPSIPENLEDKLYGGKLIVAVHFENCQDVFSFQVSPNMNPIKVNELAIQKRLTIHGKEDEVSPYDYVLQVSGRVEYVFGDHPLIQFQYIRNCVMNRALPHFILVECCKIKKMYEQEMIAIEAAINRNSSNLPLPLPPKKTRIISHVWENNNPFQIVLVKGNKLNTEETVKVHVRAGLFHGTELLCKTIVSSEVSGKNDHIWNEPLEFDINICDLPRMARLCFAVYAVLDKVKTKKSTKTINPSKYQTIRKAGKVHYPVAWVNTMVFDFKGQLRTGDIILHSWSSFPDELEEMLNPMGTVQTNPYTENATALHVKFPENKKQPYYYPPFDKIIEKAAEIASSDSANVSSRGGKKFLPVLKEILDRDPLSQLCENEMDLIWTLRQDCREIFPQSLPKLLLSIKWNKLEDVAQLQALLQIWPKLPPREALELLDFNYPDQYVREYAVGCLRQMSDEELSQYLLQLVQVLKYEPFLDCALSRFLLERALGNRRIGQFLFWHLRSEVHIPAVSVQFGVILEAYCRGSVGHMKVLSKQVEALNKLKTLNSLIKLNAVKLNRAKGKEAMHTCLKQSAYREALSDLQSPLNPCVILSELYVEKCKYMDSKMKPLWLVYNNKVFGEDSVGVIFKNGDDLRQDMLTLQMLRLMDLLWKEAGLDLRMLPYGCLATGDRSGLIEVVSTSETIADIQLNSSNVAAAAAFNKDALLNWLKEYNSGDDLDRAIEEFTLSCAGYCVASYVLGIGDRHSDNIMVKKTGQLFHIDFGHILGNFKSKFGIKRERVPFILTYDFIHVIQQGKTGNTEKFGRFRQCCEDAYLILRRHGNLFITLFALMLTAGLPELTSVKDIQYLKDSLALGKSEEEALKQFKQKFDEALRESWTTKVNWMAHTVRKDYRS
# Sequence of p110β/p85α (P27986 whole entry partner): as the sequence (P27986 whole entry partner) above
SMILES,"IC50 [1, 6] [µM]","IC50 [2, 7] [µM]","IC50 [3, 8] [µM]","IC50 [4, 9] [µM]","IC50 [5, 11] [µM]",IC50 ([1]; read-out: PI3K α IC50) [µM],IC50 ([5]; read-out: PI3K β IC50) [µM],IC50 ([2]; read-out: PI3K δ IC50) [µM],IC50 ([3]; read-out: PI3K γ IC50) [µM],"IC50 [4, 12] [µM]",further results
COC1CN(C(=O)c2cnc3ccc(-c4ccc5oc(N)nc5c4)cn23)C1 [compound 467],,,,,,,,,,,"IC50 ([1]; read-out: PI3K α In Vitro IC50): < 0.1 µM; IC50 ([5]; read-out: PI3K β In Vitro IC50): < 10 µM; IC50 ([2]; read-out: PI3K δ In Vitro IC50): < 10 µM; IC50 ([3]; read-out: PI3K γ In Vitro IC50): < 0.1 µM; IC50 [4, 10]: < 1 µM"
C[C@@H](N)C(=O)N1CCN(c2cnc3ccc(-c4ccc5oc(N)nc5c4)cc3n2)CC1 [compound 208],< 0.1,< 1,< 10,< 10,< 1,,,,,,
Cc1cn(C2CCN(c3cnc4ccc(-c5ccc6oc(N)nc6c5)cc4n3)CC2)cn1 [compound 338],< 0.1,< 10,< 10,< 10,< 10,,,,,,
CC(C)N1CCN(c2cnc3ccc(-c4ccc5oc(N)nc5c4)cc3n2)CC1 [compound 84],,,,,,< 0.1,< 0.1,< 1,< 0.1,< 10,
Nc1nc2cc(-c3ccc4ncc(N5CCC(N6CCOCC6)CC5)nc4c3)ccc2o1 [compound 171],,,,,,< 0.1,< 1,< 1,< 1,< 1,
CC(C)(N)C(=O)N1CCN(c2cnc3ccc(-c4ccc5oc(N)nc5c4)cc3n2)CC1 [compound 213],< 0.1,< 1,,< 1,< 1,,,,,,
CN1CCC(n2cnc3ccc(-c4cnc(Cl)c(NS(C)(=O)=O)c4)cc3c2=O)CC1 [compound 526],,,,,,,,,,,"IC50 ([1]; read-out: PI3K α In Vitro IC50): < 0.1 µM; IC50 ([5]; read-out: PI3K β In Vitro IC50): < 10 µM; IC50 ([2]; read-out: PI3K δ In Vitro IC50): < 1 µM; IC50 [4, 10]: < 10 µM"
C[C@@H]1CN(C2CN(C(=O)c3cnc4ccc(-c5ccc6oc(N)nc6c5)cn34)C2)CCN1C [compound 508],,,,,,,,,,,"IC50 ([1]; read-out: PI3K α In Vitro IC50): < 0.1 µM; IC50 ([5]; read-out: PI3K β In Vitro IC50): < 10 µM; IC50 ([2]; read-out: PI3K δ In Vitro IC50): < 1 µM; IC50 ([3]; read-out: PI3K γ In Vitro IC50): < 10 µM; IC50 [4, 10]: < 1 µM"
CS(=O)(=O)CCN1CCC(Nc2cnc3ccc(-c4ccc5oc(N)nc5c4)cc3n2)CC1 [compound 181],,,,,,< 0.1,< 10,< 1,< 0.1,< 10,
CCN1CCN(c2cnc3ccc(-c4ccc5oc(N)nc5c4)cc3n2)CC1 [compound 152],,,,,,< 0.1,< 0.1,< 10,< 1,< 10,
Nc1nc2cc(-c3ccc4ncc(N5CCN(C(=O)[C@H](N)CO)CC5)nc4c3)ccc2o1 [compound 299],< 0.1,< 0.1,< 0.1,< 1,< 1,,,,,,
Nc1nc2cc(-c3ccc4ncc(N5CCC(N)CC5)nc4c3)ccc2o1 [compound 168],,,,,,< 0.1,< 1,< 10,,< 10,
CN1CCN(CCNc2cnc3ccc(-c4ccc5oc(N)nc5c4)cc3n2)CC1 [compound 275],< 0.1,< 1,< 1,< 1,< 1,,,,,,
CC(C)N1CCC(n2cnc3ccc(-c4cnc(Cl)c(NS(C)(=O)=O)c4)cc3c2=O)CC1 [compound 523],,,,,,,,,,,"IC50 ([1]; read-out: PI3K α In Vitro IC50): < 0.1 µM; IC50 ([5]; read-out: PI3K β In Vitro IC50): < 1 µM; IC50 ([2]; read-out: PI3K δ In Vitro IC50): < 0.1 µM; IC50 ([3]; read-out: PI3K γ In Vitro IC50): < 0.1 µM; IC50 [4, 10]: < 10 µM"
Nc1nc2cc(-c3ccc4ncc(N5CC(N6CCC(O)CC6)C5)nc4c3)ccc2o1 [compound 341],< 1,< 10,< 10,< 10,,,,,,,
COc1ncc(-c2ccc3ncn(C4CCN(C)CC4)c(=O)c3c2)cc1NS(=O)(=O)c1ccccc1 [compound 524],,,,,,,,,,,"IC50 ([1]; read-out: PI3K α In Vitro IC50): < 0.1 µM; IC50 ([5]; read-out: PI3K β In Vitro IC50): < 0.1 µM; IC50 ([2]; read-out: PI3K δ In Vitro IC50): < 0.1 µM; IC50 ([3]; read-out: PI3K γ In Vitro IC50): < 1 µM; IC50 [4, 10]: < 1 µM"

SMILES,"IC50 [1, 6] [µM]","IC50 [2, 7] [µM]","IC50 [3, 8] [µM]","IC50 [4, 9] [µM]","IC50 [5, 11] [µM]",IC50 ([1]; read-out: PI3K α IC50) [µM],IC50 ([5]; read-out: PI3K β IC50) [µM],IC50 ([2]; read-out: PI3K δ IC50) [µM],IC50 ([3]; read-out: PI3K γ IC50) [µM],"IC50 [4, 12] [µM]",further results
Nc1nc2cc(-c3ccc4ncc(C(=O)N5CC(N6CC[C@H](O)C6)C5)n4c3)ccc2o1 [compound 469],,,,,,,,,,,"IC50 ([1]; read-out: PI3K α In Vitro IC50): < 0.1 µM; IC50 ([5]; read-out: PI3K β In Vitro IC50): < 10 µM; IC50 ([2]; read-out: PI3K δ In Vitro IC50): < 10 µM; IC50 ([3]; read-out: PI3K γ In Vitro IC50): < 1 µM; IC50 [4, 10]: < 10 µM"
Cc1nccn1-c1cnc2ccc(-c3ccc4oc(N)nc4c3)cc2n1 [compound 174],,,,,,< 0.1,< 1,< 10,< 0.1,< 10,
CCN(CC)CC(=O)N1CCN(c2cnc3ccc(-c4ccc5oc(N)nc5c4)cc3n2)CC1 [compound 279],< 0.1,< 10,< 10,< 1,< 10,,,,,,
CNC(=O)CN1CCN(c2cnc3ccc(-c4ccc5oc(N)nc5c4)cc3n2)CC1 [compound 120],,,,,,< 0.1,< 1,< 10,,< 1,
O=C(c1cnc2ccc(-c3cnc(Cl)c(NS(=O)(=O)c4ccc(F)cc4)c3)cn12)N1CCOCC1 [compound 457],,,,,,,,,,,"IC50 ([1]; read-out: PI3K α In Vitro IC50): < 0.1 µM; IC50 ([5]; read-out: PI3K β In Vitro IC50): < 0.1 µM; IC50 ([2]; read-out: PI3K δ In Vitro IC50): < 0.1 µM; IC50 ([3]; read-out: PI3K γ In Vitro IC50): < 0.1 µM; IC50 [4, 10]: < 1 µM"
CC1(C)CN(C2CN(C(=O)c3cnc4ccc(-c5ccc6oc(N)nc6c5)cn34)C2)CCN1 [compound 515],,,,,,,,,,,"IC50 ([1]; read-out: PI3K α In Vitro IC50): < 0.1 µM; IC50 ([5]; read-out: PI3K β In Vitro IC50): < 10 µM; IC50 ([2]; read-out: PI3K δ In Vitro IC50): < 0.1 µM; IC50 ([3]; read-out: PI3K γ In Vitro IC50): < 1 µM; IC50 [4, 10]: < 1 µM"
Nc1nc2cc(-c3ccc4ncc(N5CC(N6CCS(=O)(=O)CC6)C5)nc4c3)ccc2o1 [compound 334],< 0.1,< 10,< 10,< 1,< 10,,,,,,
CNC(=O)N1CCN(c2cnc3ccc(-c4ccc5oc(N)nc5c4)cc3n2)CC1 [compound 154],,,,,,< 0.1,< 1,< 10,< 0.1,< 1,
Nc1nc2cc(-c3ccc4ncc(N5CCNCC5)nc4c3)ccc2o1 [compound 88],,,,,,< 0.1,< 0.1,< 10,< 1,< 10,
CN1CC(C(=O)N2CCN(c3cnc4ccc(-c5ccc6oc(N)nc6c5)cc4n3)CC2)C1 [compound 156],,,,,,< 0.1,< 1,< 1,< 1,< 1,
Nc1nc2cc(-c3ccn4ncc(-c5ccncc5)c4c3)ccc2o1 [compound 356],< 0.1,< 0.1,< 0.1,< 1,< 0.1,,,,,,
CN1CCN(c2cnc3ccc(-c4ccc5oc(N)nc5c4)cc3n2)CC1 [compound 65],,,,,,< 0.1,< 0.1,< 10,< 1,< 10,
Nc1nc2cc(-c3ccc4ncc(C(=O)N5CC(N6CC[C@@H](O)C6)C5)n4c3)ccc2o1 [compound 470],,,,,,,,,,,"IC50 ([1]; read-out: PI3K α In Vitro IC50): < 0.1 µM; IC50 ([5]; read-out: PI3K β In Vitro IC50): < 10 µM; IC50 ([2]; read-out: PI3K δ In Vitro IC50): < 10 µM; IC50 ([3]; read-out: PI3K γ In Vitro IC50): < 1 µM; IC50 [4, 10]: < 10 µM"
Nc1nc2cc(-c3ccc4ncc(N5CC(C(=O)N6CCN(CC7CC7)CC6)C5)nc4c3)ccc2o1 [compound 287],< 0.1,< 1,< 1,< 10,< 10,,,,,,
Nc1nc2cc(-c3ccc4ncc(N5CC(N6CCN(CC7CC7)CC6)C5)nc4c3)ccc2o1 [compound 335],< 0.1,< 10,,< 1,< 10,,,,,,
Nc1nc2cc(-c3ccc4ncc(C(=O)N5C6CCC5COC6)n4c3)ccc2o1 [compound 480],,,,,,,,,,,"IC50 ([1]; read-out: PI3K α In Vitro IC50): < 0.1 µM; IC50 ([2]; read-out: PI3K δ In Vitro IC50): < 10 µM; IC50 ([3]; read-out: PI3K γ In Vitro IC50): < 1 µM; IC50 [4, 10]: < 1 µM"

# Now from value to molecule, other results behind:
"IC50 [1, 6] [µM]","IC50 [2, 7] [µM]","IC50 [3, 8] [µM]","IC50 [4, 9] [µM]","IC50 [5, 11] [µM]",IC50 ([1]; read-out: PI3K α IC50) [µM],IC50 ([5]; read-out: PI3K β IC50) [µM],IC50 ([2]; read-out: PI3K δ IC50) [µM],IC50 ([3]; read-out: PI3K γ IC50) [µM],"IC50 [4, 12] [µM]",SMILES,further results
< 0.1,< 10,< 0.1,< 10,,,,,,,Cc1ccc(NC(=O)c2cnc3ccc(-c4ccc5oc(N)nc5c4)cn23)cn1 [compound 294],
< 0.1,< 1,< 1,< 10,< 10,,,,,,Nc1nc2cc(-c3ccc4ncc(C(=O)N5CC(N6CCOCC6)C5)n4c3)ccc2o1 [compound 266],
< 0.1,< 10,< 0.1,< 1,< 10,,,,,,Nc1nc2cc(-c3ccc4ncc(C(=O)N5CC[C@@H](O)C5)n4c3)ccc2o1 [compound 265],
,,,,,< 0.1,< 1,< 1,< 0.1,< 1,CCNC(=O)c1cnc2ccc(-c3ccc4oc(N)nc4c3)cn12 [compound 188],
< 0.1,< 10,< 1,< 1,< 10,,,,,,Nc1nc2cc(-c3ccc4ncc(C(=O)N5CC[C@H](O)C5)n4c3)ccc2o1 [compound 264],
,,,,,< 0.1,< 10,< 1,< 0.1,< 1,Nc1nc2cc(-c3ccc4ncc(C(=O)NC5CC5)n4c3)ccc2o1 [compound 187],
< 0.1,< 10,< 10,< 10,< 10,,,,,,Nc1nc2cc(-c3ccc4ncc(C(=O)N5CCN(C6CC6)CC5)n4c3)ccc2o1 [compound 263],
< 0.1,< 10,< 1,< 1,< 10,,,,,,Nc1nc2cc(-c3ccc4ncc(C(=O)N5CCC(O)C5)n4c3)ccc2o1 (stereo not shown) [compound 202],
,,,,,< 0.1,,< 10,< 0.1,< 10,Nc1nc2cc(-c3ccc4ncc(-c5ccc6nc(N)oc6c5)n4c3)ccc2o1 [compound 50],
< 0.1,< 0.1,< 1,< 1,< 1,,,,,,Nc1nc2cc(-c3ccc4ncc(C(=O)NCCCN5CCCC5)n4c3)ccc2o1 [compound 293],
,,,,,< 0.1,,< 10,< 1,< 1,CS(=O)(=O)N1CCN(C(=O)c2cnc3ccc(-c4ccc5oc(N)nc5c4)cn23)CC1 [compound 112],
